Test results from patent US12077503B2, “Substituted cyclic amides and their use as herbicides” (FMC CORPORATION, priority 2015, dated 2024).

Assays:
Format in all cases: in vivo
[1] = test system: barnyardgrass (Echinochloa crus-galli); assay: Test G Pre-Emergence Protocol; details: Echinochloa crus-galli, pre-emergence, 312 h, evaluated after 13 days; for pest or weed control at 15.625 g/ha: 15.625 g ai/ha; for pest or weed control at 15.625 g/ha / pest or weed control at 250 g/ha: read-out: Barnyardgrass damage rating (100=total damage to plant; 0=no damage to plant); for pest or weed control at 62.5 g/ha: 62.5 g ai/ha, 100=total damage to plant, 0=no damage to plant, read-out: Barnyardgrass damage rating; for pest or weed control at 250 g/ha: 250 g ai/ha
Method in brief: (§1)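 Seeds were sown in standard soil and kept one day in a glasshouse (24/16° C day/night, 14 h light, 65% humidity), then sprayed with compound in acetone/water (50:50) containing 0.5% Tween 20 at 15.625, 62.5 or 250 g/ha. Damage was scored after 13 days (0 = none, 100 = total).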

corn (Zea mays) [2] = assay: Test G Pre-Emergence Protocol; details: evaluated after 13 days; for plant injury at 62.5 g/ha: 62.5 g ai/ha, 100=total damage to plant, 0=no damage to plant, read-out: Corn damage rating; for plant injury at 250 g/ha: 250 g ai/ha
Method in brief: as §1

[3] = test system: giant foxtail (Setaria faberi); assay: Test G Pre-Emergence Protocol; details: Setaria faberi, pre-emergence, 312 h, evaluated after 13 days; for pest or weed control at 15.625 g/ha: 15.625 g ai/ha; for pest or weed control at 15.625 g/ha / pest or weed control at 250 g/ha: read-out: Foxtail, Giant damage rating (100=total damage to plant; 0=no damage to plant); for pest or weed control at 62.5 g/ha: 62.5 g ai/ha, 100=total damage to plant, 0=no damage to plant, read-out: Foxtail, Giant damage rating; for pest or weed control at 250 g/ha: 250 g ai/ha
Method in brief: as §1

[4] = test system: ivy-leaved morning glory (Ipomoea hederacea); assay: Test G Pre-Emergence Protocol; details: evaluated after 13 days; for pest or weed control at 15.625 g/ha: 15.625 g ai/ha; for pest or weed control at 15.625 g/ha / pest or weed control at 250 g/ha: read-out: Morningglory, Ivy-leaved damage rating (100=total damage to plant; 0=no damage to plant); for pest or weed control at 250 g/ha: 250 g ai/ha
Method in brief: as §1

[5] = test system: redroot pigweed (Amaranthus retroflexus); assay: Test G Pre-Emergence Protocol; details: evaluated after 13 days; for pest or weed control at 15.625 g/ha: 15.625 g ai/ha; for pest or weed control at 62.5 g/ha: 62.5 g ai/ha, 100=total damage to plant, 0=no damage to plant, read-out: Pigweed, Redroot damage rating
Method in brief: as §1

[6] = test system: velvetleaf (Abutilon theophrasti); assay: Test G Pre-Emergence Protocol; details: evaluated after 13 days; for pest or weed control at 62.5 g/ha: 62.5 g ai/ha, 100=total damage to plant, 0=no damage to plant, read-out: Velvetleaf damage rating; for pest or weed control at 250 g/ha: 250 g ai/ha
Method in brief: as §1

[7] = test system: barnyardgrass (Echinochloa crus-galli); assay: Test G Post-Emergence Protocol; details: Echinochloa crus-galli, post-emergence, 312 h, read-out: Barnyardgrass damage rating; for pest or weed control at 15.625 g/ha: 15.625 g ai/ha, evaluated after 13 days (100=total damage to plant; 0=no damage to plant); for pest or weed control at 62.5 g/ha: 62.5 g ai/ha; for pest or weed control at 62.5 g/ha / pest or weed control at 250 g/ha: evaluated after 13 days, 100=total damage to plant, 0=no damage to plant; for pest or weed control at 250 g/ha: 250 g ai/ha
Method in brief: (§2)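 Foliar application was made 8 days after sowing, using an aqueous spray of the active in acetone/water (50:50) with 0.5% Tween 20, at doses of 15.625, 62.5 or 250 g/ha. Injury was assessed 13 days later, where 100 meant the plant was fully damaged.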

corn (Zea mays) [8] = assay: Test G Post-Emergence Protocol; details: Zea mays, post-emergence, 312 h, read-out: Corn damage rating; for plant injury at 15.625 g/ha: 15.625 g ai/ha, evaluated after 13 days (100=total damage to plant; 0=no damage to plant); for plant injury at 62.5 g/ha: 62.5 g ai/ha; for plant injury at 62.5 g/ha / plant injury at 250 g/ha: evaluated after 13 days, 100=total damage to plant, 0=no damage to plant; for plant injury at 250 g/ha: 250 g ai/ha
Method in brief: as §2

[9] = test system: giant foxtail (Setaria faberi); assay: Test G Post-Emergence Protocol; details: Setaria faberi, post-emergence, 312 h, read-out: Foxtail, Giant damage rating; for pest or weed control at 15.625 g/ha: 15.625 g ai/ha, evaluated after 13 days (100=total damage to plant; 0=no damage to plant); for pest or weed control at 62.5 g/ha: 62.5 g ai/ha; for pest or weed control at 62.5 g/ha / pest or weed control at 250 g/ha: evaluated after 13 days, 100=total damage to plant, 0=no damage to plant; for pest or weed control at 250 g/ha: 250 g ai/ha
Method in brief: as §2

[10] = test system: ivy-leaved morning glory (Ipomoea hederacea); assay: Test G Post-Emergence Protocol; details: for pest or weed control at 62.5 g/ha: 62.5 g ai/ha; for pest or weed control at 62.5 g/ha / pest or weed control at 250 g/ha: evaluated after 13 days, 100=total damage to plant, 0=no damage to plant; for pest or weed control at 250 g/ha: 250 g ai/ha
Method in brief: as §2

[11] = test system: redroot pigweed (Amaranthus retroflexus); assay: Test G Post-Emergence Protocol; details: Amaranthus retroflexus, post-emergence, 312 h, read-out: Pigweed, Redroot damage rating; for pest or weed control at 15.625 g/ha: 15.625 g ai/ha, evaluated after 13 days (100=total damage to plant; 0=no damage to plant); for pest or weed control at 62.5 g/ha: 62.5 g ai/ha; for pest or weed control at 62.5 g/ha / pest or weed control at 250 g/ha: evaluated after 13 days, 100=total damage to plant, 0=no damage to plant; for pest or weed control at 250 g/ha: 250 g ai/ha
Method in brief: as §2

[12] = test system: velvetleaf (Abutilon theophrasti); assay: Test G Post-Emergence Protocol; details: for pest or weed control at 15.625 g/ha: 15.625 g ai/ha, evaluated after 13 days (100=total damage to plant; 0=no damage to plant); for pest or weed control at 250 g/ha: 250 g ai/ha
Method in brief: as §2

[13] = Zea mays, pre-emergence, 312 h, read-out: Corn damage rating (100=total damage to plant; 0=no damage to plant)
[14] = Amaranthus retroflexus, pre-emergence, 312 h, read-out: Pigweed, Redroot damage rating (100=total damage to plant; 0=no damage to plant)
[15] = Amaranthus retroflexus, pre-emergence, 312 h
[16] = Abutilon theophrasti, pre-emergence, 312 h
[17] = Abutilon theophrasti, pre-emergence, 312 h, read-out: Velvetleaf damage rating (100=total damage to plant; 0=no damage to plant)
[18] = Ipomoea, post-emergence, 312 h, read-out: Morningglory, Ivy-leaved damage rating
[19] = Abutilon theophrasti, post-emergence, 312 h, read-out: Velvetleaf damage rating
[20] = Abutilon theophrasti, post-emergence, 312 h, evaluated after 13 days, 100=total damage to plant, 0=no damage to plant, read-out: Velvetleaf damage rating

Compound | pest or weed control at 15.625 g/ha [1] [%] | pest or weed control at 62.5 g/ha [1] [%] | pest or weed control at 250 g/ha [1] [%] | plant injury at 62.5 g/ha (corn (Zea mays) [2]; Zea mays, pre-emergence, 312 h) [%] | plant injury at 250 g/ha (corn (Zea mays) [2]; [13]) [%] | pest or weed control at 15.625 g/ha [3] [%] | pest or weed control at 62.5 g/ha [3] [%] | pest or weed control at 250 g/ha [3] [%] | pest or weed control at 15.625 g/ha ([4]; Ipomoea, pre-emergence, 312 h) [%] | pest or weed control at 250 g/ha ([4]; Ipomoea, pre-emergence, 312 h) [%] | pest or weed control at 15.625 g/ha [5, 14] [%] | pest or weed control at 62.5 g/ha [5, 15] [%] | pest or weed control at 62.5 g/ha [6, 16] [%] | pest or weed control at 250 g/ha [6, 17] [%] | pest or weed control at 15.625 g/ha [7] [%] | pest or weed control at 62.5 g/ha [7] [%] | pest or weed control at 250 g/ha [7] [%] | plant injury at 15.625 g/ha (corn (Zea mays) [8]) [%] | plant injury at 62.5 g/ha (corn (Zea mays) [8]) [%] | plant injury at 250 g/ha (corn (Zea mays) [8]) [%] | further results
CN1C[C@H](c2cccc(C(F)(F)F)c2)[C@@H](C(=O)Nc2cccc(F)n2)C1=O (racemic) [Compound 1671] | 70 | 90 | 90 | 80 | 80 | 80 | 90 | 90 | 10 | 70 | 0 | 30 | 30 | 60 | 70 | 70 | 80 | 60 | 70 | 80 | Corn damage rating (100=total damage to plant; 0=no damage to plant) (corn (Zea mays) [2]; 15.625 g ai/ha): 30; Morningglory, Ivy-leaved damage rating ([4]; 62.5 g ai/ha, 100=total damage to plant, 0=no damage to plant): 20; Pigweed, Redroot damage rating (100=total damage to plant; 0=no damage to plant) ([5]; 250 g ai/ha): 50; Velvetleaf damage rating (100=total damage to plant; 0=no damage to plant) ([6]; 15.625 g ai/ha): 20; pest or weed control at 15.625 g/ha [9]: 70%; pest or weed control at 62.5 g/ha [9]: 80%; pest or weed control at 250 g/ha [9]: 80%; Morningglory, Ivy-leaved damage rating ([10]; 15.625 g ai/ha, evaluated after 13 days (100=total damage to plant; 0=no damage to plant)): 0; pest or weed control at 62.5 g/ha [10, 18]: 70%; pest or weed control at 250 g/ha [10, 18]: 50%; pest or weed control at 15.625 g/ha [11]: 10%; pest or weed control at 62.5 g/ha [11]: 30%; pest or weed control at 250 g/ha [11]: 50%; Velvetleaf damage rating ([12]; 62.5 g ai/ha, evaluated after 13 days, 100=total damage to plant, 0=no damage to plant): 10; pest or weed control at 15.625 g/ha [12, 19]: 0%; pest or weed control at 250 g/ha [12, 20]: 40%
Cc1ccc([C@H]2CN(C)C(=O)[C@@H]2C(=O)Nc2ccc3cccnc3n2)cc1 (racemic) [Compound 1675] | 0 | 0 | 0 | 0 | 0 | 0 | 0 | 10 | 0 | 0 | 0 | 0 | 0 | 0 | 0 | 0 | 0 | 0 | 0 | 0 | plant injury at 15.625 g/ha (corn (Zea mays) [2]; Zea mays, pre-emergence, 312 h, 15.625 g ai/ha, read-out: Corn damage rating (100=total damage to plant; 0=no damage to plant)): 0%; pest or weed control at 62.5 g/ha ([4]; Ipomoea, pre-emergence, 312 h, 62.5 g ai/ha, 100=total damage to plant, 0=no damage to plant, read-out: Morningglory, Ivy-leaved damage rating): 0%; pest or weed control at 250 g/ha ([5]; Amaranthus retroflexus, pre-emergence, 312 h, 250 g ai/ha, read-out: Pigweed, Redroot damage rating (100=total damage to plant; 0=no damage to plant)): 0%; pest or weed control at 15.625 g/ha ([6]; Abutilon theophrasti, pre-emergence, 312 h, 15.625 g ai/ha, read-out: Velvetleaf damage rating (100=total damage to plant; 0=no damage to plant)): 0%; pest or weed control at 15.625 g/ha [9]: 0%; pest or weed control at 62.5 g/ha [9]: 0%; pest or weed control at 250 g/ha [9]: 20%; pest or weed control at 15.625 g/ha ([10]; Ipomoea, post-emergence, 312 h, 15.625 g ai/ha, evaluated after 13 days (100=total damage to plant; 0=no damage to plant), read-out: Morningglory, Ivy-leaved damage rating): 0%; pest or weed control at 62.5 g/ha [10, 18]: 0%; pest or weed control at 250 g/ha [10, 18]: 0%; pest or weed control at 15.625 g/ha [11]: 0%; pest or weed control at 62.5 g/ha [11]: 0%; pest or weed control at 250 g/ha [11]: 0%; pest or weed control at 15.625 g/ha [12, 19]: 0%; pest or weed control at 62.5 g/ha ([12]; Abutilon theophrasti, post-emergence, 312 h, 62.5 g ai/ha, evaluated after 13 days, 100=total damage to plant, 0=no damage to plant, read-out: Velvetleaf damage rating): 0%; pest or weed control at 250 g/ha [12, 20]: 10%
